Experimental findings from patent publication US8263754B2, “Amphiphiles for protein solubilization and stabilization” (Wisconsin Alumni Research Foundation, priority 2008, dated 2012) are described below.

This data set in a line: Critical micelle concentration (CMC) by dye solubilization (Orange OT or DPH). Type of data set: physicochemical. Particulars: determined by DPH (diphenylhexatriene) or Orange OT. An excerpt:
Aqueous solubilization of Orange OT was used to determine critical micelle concentrations (CMC). […] Facile self-association of these amphiphiles under these conditions may be hindered by the hydrophilicity and/or steric bulk of the triglucoside and dimaltoside headgroups.
The Critical Micelle Concentrations (CMCs) of compounds of the invention can be determined by standard techniques known to those of skill in the art. For example, CMCs of the carbohydrate-based amphiphiles described herein can be determined by monitoring uptake of a dye (e.g., Orange OT or 1,6-diphenylhexatriene) with increasing detergent concentration, monitored by UV-visible or fluorescence spectroscopy.
Take `CCCCC(CCCC)(CC(=O)NC(CO[C@@H]1O[C@H](CO)[C@@H](O[C@H]2O[C@H](CO)[C@@H](O)[C@H](O)[C@H]2O)[C@H](O)[C@H]1O)CO[C@@H]1O[C@H](CO)[C@@H](O[C@H]2O[C@H](CO)[C@@H](O)[C@H](O)[C@H]2O)[C@H](O)[C@H]1O)c1ccc(C(C)(C)C)cc1` [TPA16]: the “CMC” value is 3.3 mM and the “CMC (%)” value worked out at 0.34%.

For `CCCC[C@]1(CC(=O)NCCO[C@H]2OC(CO)[C@H](O[C@@H]3OC(CO)[C@H](O)C(O)[C@H]3O)C(O)[C@H]2O)C2C[C@@H]3C[C@H](C2)C[C@@H]1C3` (stereo partly shown) [TPA 46], the “CMC” value was 2.6 mM and the “CMC (%)” value was 0.16%.

As to `CCCCC(CCCC)(CC(=O)NC(COC1OC(CO)C(O)C(O)C1O)COC1OC(CO)C(O)C(O)C1O)c1ccc(-c2ccccc2)cc1` (stereo not shown) [TPA 34], the “CMC” value is given as 0.14 mM and the “CMC (%)” value was 0.01%.

As to `CCCCC(CCCC)(CC(=O)NC(CO[C@@H]1O[C@H](CO)[C@@H](O)[C@H](O)[C@H]1O)CO[C@@H]1O[C@H](CO)[C@@H](O)[C@H](O)[C@H]1O)c1ccc(C(C)C)cc1` [TPA 32], the “CMC” value is given as 1.3 mM and the “CMC (%)” value amounted to 0.091%.

With `CCCCCCC(CCCCCC)(CC(=O)NC(CO[C@@H]1O[C@H](CO)[C@@H](O)[C@H](O)[C@H]1O)CO[C@@H]1O[C@H](CO)[C@@H](O)[C@H](O)[C@H]1O)c1ccccc1` [TPA 36], the “CMC” value was 0.56 mM and the “CMC (%)” value is 0.04%.

Turning to `O=C(CC1(C2CCCCC2)CCCCC1)NC(CO[C@@H]1O[C@H](CO)[C@@H](O)[C@H](O)[C@H]1O)CO[C@@H]1O[C@H](CO)[C@@H](O)[C@H](O)[C@H]1O` [TPA 50], the “CMC” value is listed as 19.2 mM and the “CMC (%)” value is listed as 1.19%.

On to `O=C(CC1(C2CCCCC2)CCCCCCC1)NC(CO[C@@H]1O[C@H](CO)[C@@H](O)[C@H](O)[C@H]1O)CO[C@@H]1O[C@H](CO)[C@@H](O)[C@H](O)[C@H]1O` [TPA 54], for which the “CMC” value is on record as 4.5 mM and the “CMC (%)” value is 0.29%.

For `CC12CC3CC(C)(C1)CC(CC(=O)NCCO[C@H]1OC(CO)[C@H](O[C@@H]4OC(CO)[C@H](O)C(O)[C@H]4O)C(O)[C@H]1O)(C3)C2` (stereo partly shown) [TPA 44], the “CMC” value was determined as 19.1 mM and the “CMC (%)” value worked out at 1.1%.

`CCCCC(CCCC)(CC(=O)NC(CO[C@@H]1O[C@H](CO)[C@@H](O)[C@H](O)[C@H]1O)CO[C@@H]1O[C@H](CO)[C@@H](O)[C@H](O)[C@H]1O)c1ccc(I)cc1` [TPA 28]: the “CMC” value is given as 0.89 mM and the “CMC (%)” value is given as 0.07%.

Turning to `CCCCC(CC(=O)NC(CO[C@@H]1O[C@H](CO)[C@@H](O)[C@H](O)[C@H]1O)CO[C@@H]1O[C@H](CO)[C@@H](O)[C@H](O)[C@H]1O)(C1CCCCC1)C1CCCCC1` [TPA 49], the “CMC” value worked out at 0.64 mM and the “CMC (%)” value worked out at 0.04%.

For the molecule `CCCCCC[C@]1(CC(=O)NC(CO[C@H]2OC(CO)[C@H](O)C(O)[C@H]2O)CO[C@H]2OC(CO)[C@H](O)C(O)[C@H]2O)C2C[C@@H]3C[C@H](C2)C[C@@H]1C3` (stereo partly shown) [TPA 52], the “CMC” value worked out at 1.1 mM and the “CMC (%)” value came out at 0.075%.

On to `CCCCCCCCCCCCCCC(=O)NC(CO[C@@H]1O[C@H](CO)[C@@H](O)[C@H](O)[C@H]1O)CO[C@@H]1O[C@H](CO)[C@@H](O)[C@H](O)[C@H]1O` [C14-MPA2], for which the “CMC” value worked out at 0.17 mM and the “CMC (%)” value amounted to 0.011%.

In the case of `O=C(NCCOC1OC(CO)C(OC2OC(CO)C(O)C(O)C2O)C(O)C1O)C(c1ccccc1)c1ccccc1` (stereo not shown) [DPA 68], the “CMC” value is recorded as 85.3 mM and the “CMC (%)” value was found to be 4.95%.

For the molecule `CCCCC(CCCC)(CC(=O)NC(COC1OC(CO)C(O)C(O)C1O)COC1OC(CO)C(O)C(O)C1O)C1CCCC1` (stereo not shown) [TPA 57], the “CMC” value was 2.25 mM and the “CMC (%)” value is 0.15%.

As for `CCCC[C@]1(CC(=O)NC(CO[C@H]2OC(CO)[C@H](O)C(O)[C@H]2O)CO[C@H]2OC(CO)[C@H](O)C(O)[C@H]2O)C2C[C@@H]3C[C@H](C2)C[C@@H]1C3` (stereo partly shown) [TPA 45], the “CMC” value turned out to be 6.4 mM and the “CMC (%)” value worked out at 0.41%.

In the case of `CCCCC(CCCC)(CC(=O)NC(COC1OC(CO)C(OC2OC(CO)C(O)C(O)C2O)C(O)C1O)COC1OC(CO)C(OC2OC(CO)C(O)C(O)C2O)C(O)C1O)c1ccc(-c2ccccc2)cc1` (stereo not shown) [TPA15], the “CMC” value was determined as 1.7 mM and the “CMC (%)” value was found to be 0.18%.

`CCCCCCC(CCCCCC)(CC(=O)NC(CO[C@@H]1O[C@H](CO)[C@@H](O)[C@H](O)[C@H]1O)(CO[C@@H]1O[C@H](CO)[C@@H](O)[C@H](O)[C@H]1O)CO[C@@H]1O[C@H](CO)[C@@H](O)[C@H](O)[C@H]1O)c1ccccc1` [TPA17]: the “CMC” value was determined as 1.4 mM and the “CMC (%)” value is on record as 0.13%.

For the molecule `CCCCC(CCCC)(CC(=O)NC(CO[C@@H]1O[C@H](CO)[C@@H](O)[C@H](O)[C@H]1O)CO[C@@H]1O[C@H](CO)[C@@H](O)[C@H](O)[C@H]1O)CC(C)C` [TPA25], the “CMC” value is recorded as 4.1 mM and the “CMC (%)” value turned out to be 0.26%.

Consider `CCCCC(CCCC)(CC(=O)NC(CO[C@@H]1O[C@H](CO)[C@@H](O)[C@H](O)[C@H]1O)CO[C@@H]1O[C@H](CO)[C@@H](O)[C@H](O)[C@H]1O)c1ccc(C(C)(C)C)cc1` [TPA 33], for which the “CMC” value is on record as 0.42 mM and the “CMC (%)” value came out at 0.03%.

`CCCCCCCCC(=O)NC(CO[C@@H]1O[C@H](CO)[C@@H](O)[C@H](O)[C@H]1O)CO[C@@H]1O[C@H](CO)[C@@H](O)[C@H](O)[C@H]1O` [C8-MPA2]: the “CMC” value turned out to be 77 mM and the “CMC (%)” value was 4.3%.

Turning to `O=C(NCCO[C@H]1OC(CO)[C@H](O)C(O)[C@H]1O)C12CC3CC(CC(C3)C1)C2` (stereo partly shown) [TPA 41], the “CMC” value was determined as 180 mM and the “CMC (%)” value came out at 6.9%.

Turning to `CC(C)(C)CC(C)(C)c1ccc(OCC(=O)NCCC[N+](C)(C)[O-])cc1` [Triton-N-oxide], the “CMC” value is on record as 1.1 mM and the “CMC (%)” value is 0.04%.

For `CCCCCCC(CCCCCC)(CC(=O)NC(CO[C@@H]1O[C@H](CO)[C@@H](O[C@H]2O[C@H](CO)[C@@H](O)[C@H](O)[C@H]2O)[C@H](O)[C@H]1O)CO[C@@H]1O[C@H](CO)[C@@H](O[C@H]2O[C@H](CO)[C@@H](O)[C@H](O)[C@H]2O)[C@H](O)[C@H]1O)c1ccccc1` [TPA18], the “CMC” value is 0.3 mM and the “CMC (%)” value stood at 0.03%.

For `CC(CC(=O)NC(CO[C@@H]1O[C@H](CO)[C@@H](O)[C@H](O)[C@H]1O)CO[C@@H]1O[C@H](CO)[C@@H](O)[C@H](O)[C@H]1O)(C1CCCCC1)C1CCCCC1` [TPA 47], the “CMC” value worked out at 4.7 mM and the “CMC (%)” value was determined as 0.3%.

On to `O=C(CC1(C2CCCCC2)CCCCCC1)NC(CO[C@@H]1O[C@H](CO)[C@@H](O)[C@H](O)[C@H]1O)CO[C@@H]1O[C@H](CO)[C@@H](O)[C@H](O)[C@H]1O` [TPA 53], for which the “CMC” value worked out at 13.8 mM and the “CMC (%)” value is 0.88%.

As to `CCCCC(CCCC)(CC(=O)NC(CO[C@@H]1O[C@H](CO)[C@@H](O)[C@H](O)[C@H]1O)(CO[C@@H]1O[C@H](CO)[C@@H](O)[C@H](O)[C@H]1O)CO[C@@H]1O[C@H](CO)[C@@H](O)[C@H](O)[C@H]1O)c1ccc(-c2ccccc2)cc1` [TPA13], the “CMC” value turned out to be 3.7 mM and the “CMC (%)” value is on record as 0.34%.

Regarding `O=C(NCCO[C@@H]1O[C@H](CO)[C@@H](O[C@H]2O[C@H](CO)[C@@H](O)[C@H](O)[C@H]2O)[C@H](O)[C@H]1O)C(C1CCCCC1)C1CCCCC1` [DPA 69], the “CMC” value is 13.9 mM and the “CMC (%)” value stood at 0.82%.

With `CC(C)(C)CC(C)(C)c1ccc(OCC(=O)NC(COC2OC(CO)C(O)C(O)C2O)COC2OC(CO)C(O)C(O)C2O)cc1` (stereo not shown) [CGT2], the “CMC” value was found to be 2.6 mM and the “CMC (%)” value is given as 0.17%.

`CCCCC(CCCC)(CC(=O)NC(CO[C@@H]1O[C@H](CO)[C@@H](O[C@H]2O[C@H](CO)[C@@H](O)[C@H](O)[C@H]2O)[C@H](O)[C@H]1O)CO[C@@H]1O[C@H](CO)[C@@H](O[C@H]2O[C@H](CO)[C@@H](O)[C@H](O)[C@H]2O)[C@H](O)[C@H]1O)C1CCCCC1` [TPA24]: the “CMC” value is on record as 1.9 mM and the “CMC (%)” value amounted to 0.19%.

With `CCCCC(CCCC)(CC(=O)NC(CO[C@@H]1O[C@H](CO)[C@@H](O)[C@H](O)[C@H]1O)(CO[C@@H]1O[C@H](CO)[C@@H](O)[C@H](O)[C@H]1O)CO[C@@H]1O[C@H](CO)[C@@H](O)[C@H](O)[C@H]1O)c1ccc(C(C)(C)C)cc1` [TPA14], the “CMC” value is on record as 3.4 mM and the “CMC (%)” value was 0.31%.

`CCCCC(CCCC)(CC(=O)NC(CO[C@@H]1O[C@H](CO)[C@@H](O)[C@H](O)[C@H]1O)(CO[C@@H]1O[C@H](CO)[C@@H](O)[C@H](O)[C@H]1O)CO[C@@H]1O[C@H](CO)[C@@H](O)[C@H](O)[C@H]1O)C1CCCCC1` [TPA22]: the “CMC” value is on record as 3.7 mM and the “CMC (%)” value was determined as 0.32%.

As to `CCCCCC(CC(=O)NC(CO[C@@H]1O[C@H](CO)[C@@H](O)[C@H](O)[C@H]1O)CO[C@@H]1O[C@H](CO)[C@@H](O)[C@H](O)[C@H]1O)(C1CCCCC1)C1CCCCC1` [TPA 73], the “CMC” value worked out at 0.21 mM and the “CMC (%)” value stood at 0.014%.

On to `CCCCC(CCCC)(CC(=O)NC(COC1OC(CO)C(O)C(O)C1O)COC1OC(CO)C(O)C(O)C1O)c1ccc(C)cc1` (stereo not shown) [TPA 31], for which the “CMC” value turned out to be 2.4 mM and the “CMC (%)” value is 0.16%.

For the molecule `CCCCCCCCCCC(=O)NC(CO[C@@H]1O[C@H](CO)[C@@H](O)[C@H](O)[C@H]1O)CO[C@@H]1O[C@H](CO)[C@@H](O)[C@H](O)[C@H]1O` [C10-MPA 2], the “CMC” value is on record as 8.1 mM and the “CMC (%)” value was 0.47%.

For `CCCCCC(CCCCC)(CC(=O)NC(CO[C@@H]1O[C@H](CO)[C@@H](O)[C@H](O)[C@H]1O)CO[C@@H]1O[C@H](CO)[C@@H](O)[C@H](O)[C@H]1O)c1ccccc1` [TPA 35], the “CMC” value was found to be 1.2 mM and the “CMC (%)” value came to 0.083%.
